Assay results as given in patent US20090176847A1, “Dicyclooctane Derivatives, Preparation Processes and Medical Uses Thereof” (priority 2006, published 2009).
Structures can show the parent of a compound that is named as a salt.

Key:
[1] = biological target: T1, Dipeptidylpeptidase IV, Human Placenta (Homo sapiens, UniProt P27487); assay: Active inhibition DPP IV assay (DPP IV-Glo Protease Assay Kit, chemical luminescent); format: biochemical; conditions: chemiluminescence, two parallel treatments
T1 construct: Dipeptidylpeptidase IV, Human Placenta (cat. 317630) of Calbiochem company; purchased Calbiochem 317630; host or cells: human placenta (tissue-derived natural enzyme)
Description: IC50 is determined by a NovoStar ELIASA (BMG Co. German).
According to the manual of the kit, this invention inspected the amount of the each reagent in the experimental, corresponding amount of DPPIV enzyme and chemiluminescence detection methods.

normal ICR mice = assay: Preliminary evaluation of hypoglycemic activity: effects on glucose tolerance in normal ICR mice; format: in vivo; conditions: oral 0.3, 1, 3, 10 mg/kg, serum glucose
Description: Effects on glucose tolerance in normal ICR mice of examples 15 and 16 were determined. Hypoglycemic activities in vivo were preliminary evaluated. Preparation procedure: drugs were accurately weighed and dissolved in double-distilled water, misce bene to obtain 0.5 mg/ml suspension, then diluted into colorless and clear solutions which concentration were 0.15, 0.05 and 0.015 mg/ml. Administrated Dose: the oral doses were 0.3, 1, 3, 10 mg/kg and the volume was 20 ml/kg. […] Glucose kits was used in the determination of serum glucose levels. Take 250 μl enzyme fluid, then add 5 μl serum. Establish blank tube (by added 5 μl double-distilled) and the standard tube (by added 5 μl standard glucose solution) simultaneously, misce bene. 37° C. water bath for 20 min. To adjust to zero value with blank tube, OD(505 nm) levels were determined. Serum glucose level BG(mmol/l)=ODsample tube/ODstandard tube×5.55.

T1 sequence (P27487 whole entry): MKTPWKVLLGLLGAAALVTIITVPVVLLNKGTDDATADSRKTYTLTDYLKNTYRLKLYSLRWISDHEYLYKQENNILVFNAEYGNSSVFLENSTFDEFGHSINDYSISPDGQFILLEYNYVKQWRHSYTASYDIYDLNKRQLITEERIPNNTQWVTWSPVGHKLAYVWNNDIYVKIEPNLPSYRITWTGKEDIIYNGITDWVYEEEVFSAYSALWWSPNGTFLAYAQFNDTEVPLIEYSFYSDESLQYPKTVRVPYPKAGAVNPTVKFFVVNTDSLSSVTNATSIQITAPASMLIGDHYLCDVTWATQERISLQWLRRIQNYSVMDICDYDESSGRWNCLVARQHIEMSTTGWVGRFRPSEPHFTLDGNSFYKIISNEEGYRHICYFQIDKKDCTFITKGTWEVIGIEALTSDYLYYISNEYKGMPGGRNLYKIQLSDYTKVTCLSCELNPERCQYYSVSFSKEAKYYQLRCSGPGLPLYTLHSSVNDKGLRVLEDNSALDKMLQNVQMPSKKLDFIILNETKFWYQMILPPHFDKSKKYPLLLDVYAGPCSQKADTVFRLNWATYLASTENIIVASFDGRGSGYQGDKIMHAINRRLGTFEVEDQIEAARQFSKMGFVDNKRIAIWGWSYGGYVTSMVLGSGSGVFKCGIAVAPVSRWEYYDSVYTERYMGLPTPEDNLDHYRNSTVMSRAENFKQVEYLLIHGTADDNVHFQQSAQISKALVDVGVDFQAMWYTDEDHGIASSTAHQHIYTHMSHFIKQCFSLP

IC50 [1]	SMILES	inhibitor activity of DPPIV in vivo (hypoglycemic activity, glucose tolerance) (normal ICR mice)	in vivo activity compared with positive control LAF-237 (normal ICR mice)
121 nM	N#CC1CCCN1C(=O)CNC1CC2CC(OC(=O)Nc3ccccc3)CC2C1 (stereo not shown) [Example 6, 5-[2-(2-cyano-pyrrolidin-1-yl)-2-oxo-ethylamino]-octahydro-pentalen-2-yl phenyl-carbamate hydrochloride]	–	–
204 nM	CC(C)NC(=O)OC1CC2CC(NCC(=O)N3CCCC3C#N)CC2C1 (stereo not shown) [Example 7, 5-[2-(2-cyano-pyrrolidin-1-yl)-2-oxo-ethylamino]-octahydro-pentalen-2-yl isopropyl-carbamate hydrochloride]	–	–
326 nM	CC(C)(C)NC(=O)OC1CC2CC(NCC(=O)N3CCCC3C#N)CC2C1 (stereo not shown) [Example 8, 5-[2-(2-cyano-pyrrolidin-1-yl)-2-oxo-ethylamino]-octahydro-pentalen-2-yl tert-butyl-carbamate hydrochloride]	–	–
18.3 nM	CCCCC1(O)CC2CC(NCC(=O)N3CCCC3C#N)CC2C1 (stereo not shown) [Example 10, 1-[2-(5-butyl-5-hydroxy-octahydro-pentalen-2-ylamino)-acetyl]-pyrrolidine-2-carbonitrilehydrochloride]	–	–
–	Cl.N#CC1CCCN1C(=O)CNC1CC2CC(=O)CC2C1 (stereo not shown) [Example 15, 1-[2-(5-oxo-octahydro-pentalen-2-ylamino)-acetyl]-pyrrolidine-2-carbonitrile hydrochloride]	good inhibitor activities of DPPIV in vivo	–
–	Cl.N#CC1CCCN1C(=O)CNC1CC2CC(O)CC2C1 (stereo not shown) [Example 16, 1-(2-(5-hydroxyl-octahydro-pentalen-2-ylamino)-acetyl)pyrrolidine-2-carbonitrile hydrochloride]	good inhibitor activities of DPPIV in vivo	slightly better than LAF-237
